Consider 35 compounds from patent US20210139484A1, “DIHYDROISOQUINOLINE-2(1H)-CARBOXAMIDE AND RELATED COMPOUNDS AND THEIR USE IN TREATING MEDICAL CONDITIONS” (GOSSAMER BIO SERVICES, INC., priority 2018, published 2021).

The first assay deals with T1, human HPK1 protein (Homo sapiens, UniProt Q92918).
T1 construct: recombinant human HPK1 protein (a.a. 1-346) was expressed in Sf9 insect cells; GST (N); purchased Signalchem M23-11G; host or cells: Sf9 insect cells (baculovirus)
T1 sequence (Q92918 1-346): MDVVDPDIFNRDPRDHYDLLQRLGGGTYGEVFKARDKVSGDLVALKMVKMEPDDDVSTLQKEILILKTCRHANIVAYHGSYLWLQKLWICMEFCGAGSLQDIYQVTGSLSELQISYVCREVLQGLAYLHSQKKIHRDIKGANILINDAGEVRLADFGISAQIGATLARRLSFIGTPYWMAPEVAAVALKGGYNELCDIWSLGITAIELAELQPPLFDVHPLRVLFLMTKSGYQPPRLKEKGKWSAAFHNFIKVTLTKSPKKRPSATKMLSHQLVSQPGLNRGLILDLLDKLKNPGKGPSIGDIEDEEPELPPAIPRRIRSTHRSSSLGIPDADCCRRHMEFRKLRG
Description: Human HPK1 protein TR-FRET assay. Format: biochemical. Conditions: 1 mM ATP, Table 19. In short, it runs like this: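 Read-out was TR-FRET using Eu-labeled anti-phospho-CREB (Ser133) antibody, with the 665/615 nm signal ratio normalised to DMSO-only wells and fitted by a 4-parameter logistic model for IC50. Reactions held 10 nM Sf9-expressed GST-HPK1 (a.a. 1-346), 100 nM CREBtide and 1 mM ATP, run 60 minutes at room temperature, pH 7.5.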
(In general: Time-resolved FRET reads energy transfer from a long-lived donor to a nearby acceptor.)
Consider `CCN1CCN(Cc2ccc(NC(=O)N3CCc4ccc(Oc5ncnn6cccc56)cc4C3)cc2C(F)(F)F)CC1` [compound 1, N-[4-[(4-Ethylpiperazin-1-yl)methyl]-3-(trifluoromethyl)phenyl]-7-[pyrrolo[2,1-f][1,2,4]triazin-4-yloxy]-1,2,3,4-tetrahydroisoquinoline-2-carboxamide], for which the concentration for half-maximal inhibition (IC50) is under 500 nM.

Take `CCN1CCN(Cc2ccc(NC(=O)N3CCc4ccc(Oc5ccnc6[nH]ccc56)cc4C3)cc2C(F)(F)F)CC1` [compound 2, 7-((1H-Pyrrolo[2,3-b]pyridin-4-yl)oxy)-N-(4-((4-ethylpiperazin-1-yl)methyl)-3-(trifluoromethyl)phenyl)-3,4-dihydroisoquinoline-2(1H)-carboxamide]: the IC50 is under 500 nM.

Turning to `CCN1CCN(Cc2ccc(NC(=O)N3CCc4cc(F)c(Oc5ccnc6[nH]ccc56)cc4C3)cc2C(F)(F)F)CC1` [compound 3, 7-((1H-Pyrrolo[2,3-b]pyridin-4-yl)oxy)-N-(4-((4-ethylpiperazin-1-yl)methyl)-3-(trifluoromethyl)phenyl)-6-fluoro-3,4-dihydroisoquinoline-2(1H)-carboxamide], the IC50 was under 500 nM.

In turn, `CCN1CCN(Cc2ccc(NC(=O)N3Cc4cc(Oc5ccnc6[nH]ccc56)c(F)cc4C(C)C3)cc2C(F)(F)F)CC1` (centres unmarked) [compound 4, 7-((1H-pyrrolo[2,3-b]pyridin-4-yl)oxy)-N-(4-((4-ethylpiperazin-1-yl)methyl)-3-(trifluoromethyl)phenyl)-6-fluoro-4-methyl-3,4-dihydroisoquinoline-2(1H)-carboxamide] displayed an IC50 of under 500 nM.

`CCN1CCN(Cc2ccc(NC(=O)N3CCc4ccc(Oc5ccnc6[nH]ccc56)cc4[C@@H]3C)cc2C(F)(F)F)CC1` [compound 6, (S)-7-((1H-Pyrrolo[2,3-b]pyridin-4-yl)oxy)-N-(4-((4-ethylpiperazin-1-yl)methyl)-3-(trifluoromethyl)phenyl)-1-methyl-3,4-dihydroisoquinoline-2(1H)-carboxamide] displayed an IC50 of under 500 nM.

The same assay, now with this note: 1 mM ATP, Table 20.
For `C[C@@H]1Cc2ccc(Oc3ccnc4[nH]c(C(=O)N(C)C)cc34)cc2CN1C(=O)Nc1ccc(CN2CCN(C)CC2)c(C(F)(F)F)c1` [XVI-1], the half-maximal inhibitory concentration (IC50) is under 500 nM.

In the case of `C[C@@H]1Cc2ccc(Oc3ccnc4[nH]c(C5(O)CC5)cc34)cc2CN1C(=O)Nc1ccc(CN2CCN(C)CC2)c(C(F)(F)F)c1` [XVI-2], the IC50 is under 500 nM.

For `C[C@@H]1Cc2ccc(Oc3ccnc4[nH]c(C5(O)CC5)cc34)cc2CN1C(=O)Nc1cnc(CN2CCN(C)CC2)c(C(F)(F)F)c1` [XVI-3], the IC50 is under 500 nM.

On to `C[C@@H]1Cc2ccc(Oc3c(F)cnc4[nH]c(-c5cnn(C)c5)cc34)cc2CN1C(=O)Nc1ccc(CN2CCN(C)CC2)c(C(F)(F)F)c1` [XVI-4], for which the IC50 is under 500 nM.

The compound `C[C@@H]1Cc2ccc(Oc3c(F)cnc4[nH]c(-c5cnn(C)c5)cc34)cc2CN1C(=O)Nc1cnc(CN2CCN(C)CC2)c(C(F)(F)F)c1` [XVI-5] yielded an IC50 of under 500 nM.

Compound `C[C@@H]1Cc2ccc(Oc3ccnc4[nH]c(C(=O)N(C)C)cc34)cc2CN1C(=O)Nc1cnc(O[C@@H]2CCN(C)C[C@@H]2O)c(C(F)(F)F)c1` [XVI-6] showed a half-maximal inhibitory concentration (IC50) of under 500 nM.

Regarding `C[C@@H]1Cc2ccc(Oc3ccnc4[nH]c(C(=O)N(C)C)cc34)cc2CN1C(=O)Nc1cnc(OC2CCN(C)CC2)c(C(F)(F)F)c1` [XVI-7], the half-inhibitory concentration (IC50) is under 500 nM.

As to `C[C@@H]1Cc2ccc(Oc3c(F)cnc4[nH]c(C5(O)CC5)cc34)cc2CN1C(=O)Nc1cnc(CN2CCN(C)CC2)c(C(F)(F)F)c1` [XVI-8], the IC50 was under 500 nM.

In turn, `C[C@@H]1Cc2ccc(Oc3c(F)cnc4[nH]c(C5(O)CC5)cc34)cc2CN1C(=O)Nc1ccc(CN2CCN(C)CC2)c(C(F)(F)F)c1` [XVI-9] came in with a half-inhibitory concentration (IC50) of under 500 nM.

Consider `C[C@@H]1Cc2ccc(Oc3ccnc4[nH]c(C(=O)N(C)C)cc34)cc2CN1C(=O)Nc1cnc(CN2CCN(C)CC2)c(C(F)(F)F)c1` [XVI-10], for which the half-inhibitory concentration (IC50) is under 500 nM.

On to `CCC1CN(C(=O)Nc2ccc(CN3CCN(CC)CC3)c(C(F)(F)F)c2)Cc2cc(Nc3c(F)cnc4[nH]c(-c5cnn(C)c5)cc34)cnc21` (centres unmarked) [XVII-1], for which the IC50 was under 500 nM.

Compound `CN1CCN(Cc2ncc(NC(=O)N3CCc4ccc(Nc5c(F)cnc6[nH]c(-c7cnn(C)c7)cc56)cc4C3)cc2C(F)(F)F)CC1` [XVII-2] had an IC50 of under 500 nM.

In the case of `CN1CCN(Cc2ccc(NC(=O)N3CCc4cc(F)c(Nc5c(F)cnc6[nH]c(-c7cnn(C)c7)cc56)cc4C3)cc2C(F)(F)F)CC1` [XVII-3], the IC50 was under 500 nM.

Compound `CN1CCN(Cc2ncc(NC(=O)N3CCc4cc(F)c(Nc5c(F)cnc6[nH]c(-c7cnn(C)c7)cc56)cc4C3)cc2C(F)(F)F)CC1` [XVII-4] came in with an IC50 of under 500 nM.

`CCN1CCN(Cc2ccc(NC(=O)N3Cc4cc(Oc5ccnc6[nH]c(C)cc56)c(C)nc4C(C)C3)cc2C(F)(F)F)CC1` (centres unmarked) [XVIII-2] returned an IC50 of under 500 nM.

The compound `CN(C)C(=O)c1cc2c(Oc3ccc4c(c3)CN(C(=O)Nc3ccc(CN5CCNCC5)c(C(F)(F)F)c3)CC4)c(F)cnc2[nH]1` [XVIII-3] came in with an IC50 of under 500 nM.

In the case of `CN1CCN(Cc2ccc(NC(=O)N3CCc4ccc(Oc5c(F)cnc6[nH]c(C(=O)N(C)C)cc56)cc4C3)cc2C(F)(F)F)CC1` [XVIII-4], the IC50 was under 500 nM.

In the case of `O=C(Nc1ccc(CN2CCNCC2)c(C(F)(F)F)c1)N1CCc2ccc(Oc3c(F)cnc4[nH]c(C5(O)CC5)cc34)cc2C1` [XVIII-5], the IC50 is under 500 nM.

`CN1CCN(Cc2ccc(NC(=O)N3CCc4ccc(Oc5c(F)cnc6[nH]c(C7(O)CC7)cc56)cc4C3)cc2C(F)(F)F)CC1` [XVIII-6] gave an IC50 of under 500 nM.

`O=C(Nc1ccc(CN2CCNCC2)c(C(F)(F)F)c1)N1CCc2ccc(Oc3ccnc4[nH]c(C5(O)CC5)cc34)cc2C1` [XVIII-9] gave an IC50 of under 500 nM.

Compound `CN1CCN(Cc2ccc(NC(=O)N3CCc4ccc(Oc5ccnc6[nH]c(C7(O)CC7)cc56)cc4C3)cc2C(F)(F)F)CC1` [XVIII-10] yielded an IC50 of under 500 nM.

`CCN1CCN(Cc2ccc(NC(=O)N3CCc4cnc(Nc5ccnc6[nH]ccc56)nc4C3)cc2C(F)(F)F)CC1` [XVIII-11] came in with an IC50 of 500 to 5000 nM.

In turn, `CN1CCN(Cc2ccc(NC(=O)N3Cc4cc(Oc5ccnc6[nH]c(C7(O)CC7)cc56)ccc4C(C(F)(F)F)C3)cc2C(F)(F)F)CC1` (centres unmarked) [XVIII-12] gave a 50% inhibitory concentration (IC50) of under 500 nM.

With `CN1CCN(Cc2ccc(NC(=O)N3Cc4cc(Oc5ccnc6[nH]c(C(=O)N(C)C)cc56)ccc4C(C(F)(F)F)C3)cc2C(F)(F)F)CC1` (centres unmarked) [XVIII-13], the IC50 was under 500 nM.

For `CN1CCN(Cc2ccc(NC(=O)N3Cc4cc(Oc5ccnc6[nH]ccc56)ccc4C(C(F)(F)F)C3)cc2C(F)(F)F)CC1` (centres unmarked) [XVIII-14], the IC50 was under 500 nM.

Turning to `CCN1CCN(Cc2ccc(NC(=O)N3Cc4cc(Oc5ccnc6[nH]ccc56)ccc4C(C(F)(F)F)C3)cc2C(F)(F)F)CC1` (centres unmarked) [XVIII-15], the IC50 is under 500 nM.

Regarding `CC[C@H]1Cc2ncc(Oc3ccnc4[nH]ccc34)cc2CN1C(=O)Nc1ccc(CN2CCN(CC)CC2)c(C(F)(F)F)c1` [XVIII-16], the IC50 is under 500 nM.

Compound `CC[C@@H]1Cc2ncc(Oc3ccnc4[nH]ccc34)cc2CN1C(=O)Nc1ccc(CN2CCN(CC)CC2)c(C(F)(F)F)c1` [XVIII-17] gave a 50% inhibitory concentration (IC50) of under 500 nM.

In the case of `CCN1CCN(Cc2ccc(NC(=O)N3Cc4cc(Oc5ccnc6[nH]ccc56)cnc4C[C@@H]3C)cc2C(F)(F)F)CC1` [XVIII-18], the IC50 was under 500 nM.

The compound `CCN1CCN(Cc2ccc(NC(=O)N3Cc4cc(Oc5ccnc6[nH]ccc56)cnc4C[C@H]3C)cc2C(F)(F)F)CC1` [XVIII-19] had an IC50 of under 500 nM.

As usually defined, the IC50 is the concentration that gives 50% inhibition. A lower IC50 goes with inhibition by little substance.
